Assay [1] relates to streptozotocin-induced diabetic rats. Nature of the assay: Sucrose-challenged streptozotocin-induced diabetic rats (STZ-S). It is filed as in vivo, rat. Particulars: for % Fall in blood glucose levels, STZ-S 5 h / % Fall in blood glucose levels, STZ-S 24 h: 100 mg/kg oral. The procedure: Male albino rats of Sprague Dawley strain of body weight 160+20 g were selected for this study. Streptozotocin (Sigma, USA) was dissolved in 100 mM citrate buffer pH 4.5 and calculated amount of the fresh solution was injected to overnight fasted rats (45 mg/kg) intraperitoneally. Blood glucose level was checked 48 h later by glucostrips and animals showing blood glucose values between 144 to 270 mg/dl (8 to 15 mM) were included in the experiment and termed diabetic. The diabetic animals were divided into groups consisting of five to six animals in each group. Animals of experimental groups were administered suspension of the desired test samples orally (made in 1.0% gum acacia) at a dose of 100-mg/kg-body weight. Animals of control group were given an equal amount of 1.0% gum acacia. A sucrose load of 2.5-g/kg body weight was given after 30 minutes of compound administration. After 30 minutes of post sucrose load blood glucose level was again checked by glucostrips at 30, 60, 90, 120, 180, 240, 300 min and at 24 h, respectively. Animals not found diabetic after 24 hours post treatment of the test sample were not considered and omitted from the calculations and termed as non-responders. […] Food but not water was withheld from the cages during the experimentation. Comparing the AUC of experimental and control groups determined the percent antihyperglycemic activity. Statistical comparison between groups was made by Student's ‘t’ test.
As depicted in the FIGURE, a dose response curve of 34 was obtained by administering different doses of test compound to streptozotocin-induced diabetic rats (Table 6). […]

The test system of the next assay is db/db mice. Nature of the assay: Antihyperglycemic activity in db/db mice. It is filed as in vivo, mouse. Particulars: for % Fall in blood glucose levels, 6 days: day 6; for % Fall in blood glucose levels, 10 days: day 10. An excerpt: The db/db mouse is a well-characterized model of type II diabetes. The background for the db/db mouse is the C57BL/Ks strain. The major deficiency of the C57BL/KsBom-db mouse (db/db) is lack of a functional leptin receptor. This leads to defective leptin signaling and a complete lack of feedback from leptin. […] The db/db mouse develops NIDDM from around week 10. The disease is stable until week 20, where destruction of pancreatic β-cells can be recognized clinically as decreasing levels of plasma insulin and very severe hyperglycemia. The male mice are more diabetic than female and will normally die earlier. The advantage of using male mice for experimental purposes is that the fluctuations in plasma parameters are less than in the females where the estrogen cycles affects the clinical diabetes mellitus. The optimal age of db/db mice used for experiments will be from week 12 to 18 when they have developed NIDDM with diabetic dyslipidemia but still have functional β-cells in the pancreas. C57BL/KsBom-db mice 12-18 weeks, 40-50 g bred in the animal house of CDRI, Lucknow. 10 male mice were used in the experiments. The mice were housed in groups of 5 individuals in a room controlled for temperature (23+2° C.) and 12/12 hours light/dark cycle (lights on at 6.00 am). Body weight was measured daily from day 1 to day 10. All animals had free access to fresh water and to normal chow except on the days of the postprandial protocol day 6 and during the overnight fast before the OGTT on day 10. Blood glucose was checked every morning up till day 5. On day 6 postprandial protocol was employed, in this method blood glucose was checked at −0.30 min and 0 h. Test compounds were given to the treatment group whereas control group received only gum acacia (1.0%); the blood glucose was again checked at 1, 2, 3, 4 and 6 h post test compound treatment. Finally on day 10 an oral glucose tolerance test (OGTT) was performed after an overnight fasting. Blood glucose was measured at −0.30 min and test drugs were fed, blood glucose was again measured at 0.0 min post treatment, at this juncture glucose solution was given at a dose of 3 gm/kg to all the groups including control group; the profile of blood glucose was checked at 30 min, 60 min, 90 min and 120 min post glucose administration. Quantitative glucose tolerance of each animal was calculated by Area Under Curve (AUC) method (Prism Software). Comparing the AUC of experimental and control groups determined the percentage antihyperglycemic activity. Statistical comparison was made by Dunnett's test.

Another assay deals with sucrose loaded rat. The assay is described as follows: Sucrose loaded rat model (SLM), antihyperglycemic activity. It is filed as in vivo. As to conditions: for inhibition in vivo at 100 mg/kg: Rattus norvegicus, po, 2 h, read-out: % Fall in blood glucose levels, SLM. The procedure: Male albino rats of Charles Foster/Wistar strain of average body weight 160±20 g were selected for this study. The blood glucose level of each animal was checked by glucometer using glucostrips (Boehringer Mannheim) after 16 h starvation. Animals showing blood glucose levels between 3.33 to 4.44 mM (60 to 80 mg/dl) were divided into groups of five to six animals in each. Animals of experimental group were administered suspension of the desired synthetic compound orally (made in 1.0% gum acacia) at a dose of 100-mg/kg-body weight. Animals of control group were given an equal amount of 1.0% gum acacia. A sucrose load (10.0 g/kg) was given to each animal orally exactly after 30 min post administration of the test sample/vehicle. Blood glucose profile of each rat was again determined at 30, 60, 90 and 120 min post administration of sucrose by glucometer. Food but not water was withheld from the cages during the course of experimentation. Quantitative glucose tolerance of each animal was calculated by Area Under Curve (AUC) method (Prism Software). Comparing the AUC of experimental and control groups determined the percentage antihyperglycemic activity. Statistical comparison was made by Dunnett's test.

“And” between values parts separate entries of the source, which are not always exact repeats. Identical values can stand only once. Marks after values point to notes of the source that are not given here.

As for `CC(C)(C)NCC(O)COc1ccc2c(=O)cc(-c3cc(OCc4ccccc4)cc(OCc4ccccc4)c3)oc2c1` (centres unmarked) [Compound 34, 7-(3-tert-Butylamino-2-hydroxy-propoxy)-3′,5′-dibenzyloxy-flavone], in assay [1], the “% Fall in blood glucose levels, STZ-S 5 h” value (“% Fall … STZ-S 5 h” below) is on record as 21.6** %. Further, the “% Fall in blood glucose levels, STZ-S 24 h” value (“% Fall … STZ-S 24 h” below) in assay [1] was 28.7** %. For the same compound, the “% Fall in blood glucose levels 5 h” value is reported as 11.1% in assay [1] (Dose 25, 5 h); 9.62% in assay [1] (Dose 50, 5 h); 19.8% in assay [1] (Dose 100, 5 h); 24.3% in assay [1] (Dose 150, 5 h); 38.1% in assay [1] (Dose 200, 5 h); 40.7% in assay [1] (Dose 250, 5 h). Also, the “% Fall in blood glucose levels 24 h” value in assay [1] (Dose 25, 24 h) was determined as 13.6%; in assay [1] (Dose 50, 24 h) it was 13.8%; in assay [1] (Dose 100, 24 h), 21.9%; in assay [1] (Dose 150, 24 h), 30.5%; in assay [1] (Dose 200, 24 h) it was 37.0%; in assay [1] (Dose 250, 24 h), 45.5%. Also, the 50% effect level in assay [1] (Rattus norvegicus, STZ-S model, dose response) (ED50) was put at a dose of 90 mg/kg. Moreover, the “% Fall in blood glucose levels, 6 days” value with db/db mice worked out at 26.4%. For the same compound, the “% Fall in blood glucose levels, 10 days” value in the assay on db/db mice is 57.1%. In addition, in the assay with sucrose loaded rat, the inhibition in vivo at 100 mg/kg amounted to 29.4%.
With `CC(C)NCC(O)COc1ccc2c(=O)cc(-c3cc(O)cc(O)c3)oc2c1` (centres unmarked) [Compound 49, 3′,5′-Dihydroxy-7-(2-hydroxy-3-iso-propylamino-propoxy)-flavone], in assay [1], the “% Fall … STZ-S 5 h” value is given as 26.9** % and the “% Fall … STZ-S 24 h” value is 13.2* %. Besides, in the assay with db/db mice, the “% Fall in blood glucose levels, 6 days” value is 9.38%; the “% Fall in blood glucose levels, 10 days” value is 20.8% and 20.5%. Moreover, the inhibition in vivo at 100 mg/kg in the assay with sucrose loaded rat worked out at 29%.
In the case of `COc1cc(-c2cc(=O)c3ccc(OCCCOc4ccc(C=C5SC(=O)NC5=O)cc4)cc3o2)cc(OC)c1OC` [Compound 65, 7-{3-[4-(thiazolidin-2,4-dione-5-ylidinemethyl)-phenoxy]-propoxy}-3′,4′,5′-trimethoxy-flavone], in assay [1], the “% Fall … STZ-S 5 h” value came out at 16.1% and the “% Fall … STZ-S 24 h” value is listed as 11.0%. Besides, in the assay on db/db mice, the “% Fall in blood glucose levels, 6 days” value was 19.1% and the “% Fall in blood glucose levels, 10 days” value turned out to be 21.4%. In the assay on sucrose loaded rat (100 mg/kg oral, AUC vs control), the “% Fall in blood glucose levels, SLM” value turned out to be 29.30%. The “Antihyperglycemic (glucose lowering) activity in words” value in the assay with sucrose loaded rat (SLM as well as STZ model) was “significant and consistent glucose lowering activity”.

The values are drawn from patent US7635779B2, “Oxy substituted flavones as antihyperglycemic and antidyslipidemic agents” (Council of Scientific & Industrial Research, priority 2004, dated 2009).
